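Protocol summary: plate cells (96-well), add compound at 5 concentrations, incubate 48 h, interpolate endpoints linearly. GI50 is the concentration that inhibits growth by half. TGI: concentration producing complete growth inhibition.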
Key:
Assay in all cases: NCI anticancer screen, dose series, 48 h
DU-145 prostate = test system: DU-145 prostate
SK-OV-3 ovarian = test system: SK-OV-3 ovarian
NCI-H522 lung = test system: NCI-H522 lung
HCC-2998 colon = test system: HCC-2998 colon
IGROV1 ovarian = test system: IGROV1 ovarian
NCI-H460 lung = test system: NCI-H460 lung
NCI-H226 lung = test system: NCI-H226 lung
CCRF-CEM leukemia = test system: CCRF-CEM leukemia
MALME-3M melanoma = test system: MALME-3M melanoma
T-47D breast = test system: T-47D breast

Molecule `O=[N+]([O-])c1ccc(N2CCOCC2)c2c1no[n+]2[O-]` has a GI50 (DU-145 prostate) of 1.42 µM, a TGI (DU-145 prostate) of 5.76 µM and a GI50 (SK-OV-3 ovarian) of 1.43 µM. It also gave a TGI (SK-OV-3 ovarian) of 4.68 µM, a GI50 (NCI-H522 lung) of 0.649 µM and a TGI (NCI-H522 lung) of 2.33 µM. For the same molecule, the GI50 (HCC-2998 colon) was 1.53 µM, the TGI (HCC-2998 colon) was 7.25 µM and the GI50 (IGROV1 ovarian) was 1.3 µM. It also gave a TGI (IGROV1 ovarian) of 4.15 µM, a GI50 (NCI-H460 lung) of 0.601 µM and a TGI (NCI-H460 lung) of 2.07 µM. For the same molecule, the GI50 (NCI-H226 lung) was 2.91 µM, the TGI (NCI-H226 lung) was 17.5 µM and the GI50 (CCRF-CEM leukemia) was 0.728 µM. It also gave a TGI (CCRF-CEM leukemia) of 3.86 µM, a GI50 (MALME-3M melanoma) of 1.52 µM and a TGI (MALME-3M melanoma) of 4.28 µM. The GI50 (T-47D breast) was 1.14 µM and the TGI (T-47D breast) was 4.58 µM.

For `O=C(/C=C/c1cccc(O)c1)c1cccc(-n2cc(-c3ccccc3)[nH]c2=O)c1`, the GI50 (DU-145 prostate) was 3.15 µM, the TGI (DU-145 prostate) was 10.3 µM and the GI50 (SK-OV-3 ovarian) was 12.3 µM. It also gave a TGI (SK-OV-3 ovarian) of 25 µM, a GI50 (NCI-H522 lung) of 1.5 µM and a TGI (NCI-H522 lung) of 4.3 µM. It also gave a GI50 (HCC-2998 colon) of 8.27 µM, a TGI (HCC-2998 colon) of 20.2 µM and a GI50 (IGROV1 ovarian) of 3.24 µM. It also gave a TGI (IGROV1 ovarian) of 13.2 µM, a GI50 (NCI-H460 lung) of 2.84 µM and a TGI (NCI-H460 lung) of 7.4 µM. For the same molecule, the GI50 (NCI-H226 lung) was 8.48 µM, the TGI (NCI-H226 lung) was 28.5 µM and the GI50 (CCRF-CEM leukemia) was 3.1 µM. The TGI (CCRF-CEM leukemia) was > 41.1 µM, the GI50 (MALME-3M melanoma) was 3.53 µM and the TGI (MALME-3M melanoma) was 10.9 µM. For the same molecule, the GI50 (T-47D breast) was 3.14 µM and the TGI (T-47D breast) was 12.1 µM.

For `C#CCNC(=O)[C@H](CC)[C@H]1CC[C@H](C)[C@H]([C@@H](C)[C@H](O)[C@H](C)C(=O)[C@H](CC)C2O[C@]3(C=CC(=O)[C@]4(CC[C@@](C)([C@H]5CC[C@](O)(CC)[C@H](C)O5)O4)O3)[C@H](C)C[C@@H]2C)O1` (stereo not given in full), the GI50 (DU-145 prostate) was 2.41 µM, the TGI (DU-145 prostate) was 6.32 µM and the GI50 (SK-OV-3 ovarian) was 3.42 µM. The TGI (SK-OV-3 ovarian) was > 100 µM, the GI50 (NCI-H522 lung) was 1.87 µM and the TGI (NCI-H522 lung) was 5.39 µM. It also gave a GI50 (HCC-2998 colon) of 2.35 µM, a TGI (HCC-2998 colon) of 5.89 µM and a GI50 (IGROV1 ovarian) of 2.03 µM. For the same molecule, the TGI (IGROV1 ovarian) was 7.92 µM, the GI50 (NCI-H460 lung) was 2.55 µM and the TGI (NCI-H460 lung) was 6.94 µM. The GI50 (NCI-H226 lung) was 2.94 µM, the TGI (NCI-H226 lung) was 22.6 µM and the GI50 (CCRF-CEM leukemia) was 2.76 µM. For the same molecule, the TGI (CCRF-CEM leukemia) was 19.3 µM, the GI50 (MALME-3M melanoma) was 2.05 µM and the TGI (MALME-3M melanoma) was 6.15 µM. It also gave a GI50 (T-47D breast) of 2.36 µM and a TGI (T-47D breast) of 9 µM.

`N#CCCN1C/C(=C/c2ccc(Cl)cc2)C(=O)/C(=C/c2ccc(Cl)cc2)C1` showed a GI50 (DU-145 prostate) of 1.9 µM, a TGI (DU-145 prostate) of 4.2 µM and a GI50 (SK-OV-3 ovarian) of 2.23 µM. For the same molecule, the TGI (SK-OV-3 ovarian) was 5.4 µM, the GI50 (NCI-H522 lung) was 1.77 µM and the TGI (NCI-H522 lung) was 3.41 µM. It also gave a GI50 (HCC-2998 colon) of 1.84 µM, a TGI (HCC-2998 colon) of 3.33 µM and a GI50 (IGROV1 ovarian) of 1.75 µM. For the same molecule, the TGI (IGROV1 ovarian) was 3.95 µM, the GI50 (NCI-H460 lung) was 0.707 µM and the TGI (NCI-H460 lung) was 2.52 µM. The GI50 (NCI-H226 lung) was 2.35 µM, the TGI (NCI-H226 lung) was 8.48 µM and the GI50 (CCRF-CEM leukemia) was 0.396 µM. The TGI (CCRF-CEM leukemia) was 2.88 µM, the GI50 (MALME-3M melanoma) was 2.24 µM and the TGI (MALME-3M melanoma) was 5.22 µM. The GI50 (T-47D breast) was 3.12 µM and the TGI (T-47D breast) was 13.8 µM.

For `Cc1cc(N(CCCNc2ccnc3cc(Cl)ccc23)Cc2ccco2)nc(N2CCN(C)CC2)n1`, the GI50 (DU-145 prostate) was 5.69 µM, the TGI (DU-145 prostate) was 18.8 µM and the GI50 (SK-OV-3 ovarian) was 5.99 µM. The TGI (SK-OV-3 ovarian) was 31.2 µM, the GI50 (NCI-H522 lung) was 3.62 µM and the TGI (NCI-H522 lung) was 14.4 µM. For the same molecule, the GI50 (HCC-2998 colon) was 1.98 µM, the TGI (HCC-2998 colon) was 4.88 µM and the GI50 (IGROV1 ovarian) was 2.39 µM. The TGI (IGROV1 ovarian) was 12.3 µM, the GI50 (NCI-H460 lung) was 3.12 µM and the TGI (NCI-H460 lung) was 11.4 µM. For the same molecule, the GI50 (NCI-H226 lung) was 12.4 µM, the TGI (NCI-H226 lung) was 24.8 µM and the GI50 (CCRF-CEM leukemia) was 2.84 µM. For the same molecule, the TGI (CCRF-CEM leukemia) was 10.2 µM, the GI50 (MALME-3M melanoma) was 1.83 µM and the TGI (MALME-3M melanoma) was 3.5 µM. It also gave a GI50 (T-47D breast) of 2.15 µM and a TGI (T-47D breast) of 5.68 µM.

For `CC(C)(O)CNc1nc(Nc2ccnc(C(F)(F)F)c2)nc(-c2cccc(C(F)(F)F)n2)n1`, the GI50 (DU-145 prostate) was 21.6 µM, the TGI (DU-145 prostate) was 67.8 µM and the GI50 (SK-OV-3 ovarian) was 26.6 µM. The TGI (SK-OV-3 ovarian) was 68.3 µM, the GI50 (NCI-H522 lung) was 18.6 µM and the TGI (NCI-H522 lung) was 49.3 µM. The GI50 (HCC-2998 colon) was 20.3 µM, the TGI (HCC-2998 colon) was 43.7 µM and the GI50 (IGROV1 ovarian) was 28.6 µM. For the same molecule, the TGI (IGROV1 ovarian) was 74.5 µM, the GI50 (NCI-H460 lung) was 23.8 µM and the TGI (NCI-H460 lung) was 60.8 µM. It also gave a GI50 (NCI-H226 lung) of 20.8 µM, a TGI (NCI-H226 lung) of 58.2 µM and a GI50 (CCRF-CEM leukemia) of 21.3 µM. For the same molecule, the TGI (CCRF-CEM leukemia) was 73.9 µM, the GI50 (MALME-3M melanoma) was 21.1 µM and the TGI (MALME-3M melanoma) was 43.3 µM. The GI50 (T-47D breast) was 17.7 µM and the TGI (T-47D breast) was 56.7 µM.

Reference: PubChem BioAssay (NCI)
